The values below come from PMC6197257 (Scientific Reports, 2018).

In one data set the target is T1, rat 11β-HSD2 (Rattus norvegicus, UniProt P50233).
T1 construct: kidney microsome fractions were obtained from male Wistar rats (7-week-old); from tissue; host or cells: rat kidney microsome fraction (male Wistar rats)
T1 sequence (P50233 1-400): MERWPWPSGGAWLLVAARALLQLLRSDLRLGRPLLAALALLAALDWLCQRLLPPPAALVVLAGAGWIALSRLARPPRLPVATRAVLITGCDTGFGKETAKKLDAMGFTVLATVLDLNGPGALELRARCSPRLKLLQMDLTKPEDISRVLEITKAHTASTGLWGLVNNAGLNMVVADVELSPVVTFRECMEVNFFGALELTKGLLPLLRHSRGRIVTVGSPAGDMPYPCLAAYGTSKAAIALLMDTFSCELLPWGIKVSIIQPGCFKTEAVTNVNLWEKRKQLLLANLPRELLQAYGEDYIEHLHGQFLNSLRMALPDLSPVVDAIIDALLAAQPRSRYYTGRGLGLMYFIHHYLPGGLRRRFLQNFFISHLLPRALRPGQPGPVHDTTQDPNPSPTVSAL
The settings on record: previous study; cited from earlier work.

In a further data set the target is T2, OAT3 (Homo sapiens, UniProt Q8TCC7).
T2 construct: expressed in transfected cells
T2 sequence (Q8TCC7 1-542): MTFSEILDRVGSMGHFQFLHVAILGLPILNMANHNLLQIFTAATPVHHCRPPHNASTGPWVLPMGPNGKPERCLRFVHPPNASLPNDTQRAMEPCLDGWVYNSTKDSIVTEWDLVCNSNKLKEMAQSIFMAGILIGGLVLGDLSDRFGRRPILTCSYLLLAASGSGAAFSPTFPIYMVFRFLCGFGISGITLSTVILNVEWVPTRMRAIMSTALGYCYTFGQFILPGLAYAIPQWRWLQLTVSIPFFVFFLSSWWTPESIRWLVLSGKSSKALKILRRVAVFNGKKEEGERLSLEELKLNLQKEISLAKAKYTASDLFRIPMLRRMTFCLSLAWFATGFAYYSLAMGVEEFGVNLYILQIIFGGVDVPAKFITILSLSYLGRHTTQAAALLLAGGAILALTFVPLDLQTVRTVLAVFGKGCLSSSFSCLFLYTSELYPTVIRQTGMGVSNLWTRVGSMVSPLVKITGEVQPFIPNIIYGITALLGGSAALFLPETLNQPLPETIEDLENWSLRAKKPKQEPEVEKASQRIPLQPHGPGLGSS
The settings on record: cited from earlier work.

The test system of a further data set is anti-3MGA MAb. The data set is described as follows: competitive ELISA cross-reactivity of anti-3MGA MAb. In kind it is binding, mouse. The conditions noted are these: CR = IC50 for 3MGA / IC50 for compound x 100, 3MGA calibrated as 100%. On the procedure: To activate the hapten 3MGA for the preparation of anti-3MGA MAb, the 3MGA-KLH conjugate was synthesized by using a model based on the carbodiimide method with both EDC and NHS reagents. 3MGA-HSA was also prepared using the same method, and was used for ELISA. We also evaluated the hapten number of the 3MGA-HSA conjugate by MALDI-TOF MS analysis. […] The MAb was developed by using the same methods described in our previous study. Hybridomas secreting antibodies recognizing 3MGA were selected by ELISA and then subcloned 4 times by the limited dilution method. […] The heavy chain of the obtained MAb was classified using a Calbiochem mouse hybridoma subisotyping kit (EMD Biosciences, Darmstadt, Germany), whereas the light chain was estimated using an IsoQuick^TM mouse monoclonal isotyping strip (Sigma) according to the manufacturer’s instructions.
3MGA-HSA (1 µg/ml in 50 mM carbonate buffer, pH 9.6) was added into a 96-well plate (Nagel Nunc, Penfield, NY, USA) (100 µl/well), and incubated at 37 °C for 1 h. After the removal of 3MGA-HSA, the wells were washed with 200 µl/well PBS containing 0.05% Tween 20 (T-PBS) for 3 times. The wells were incubated with 300 µl/well of 5% skim milk (Morinaga-milk, Tokyo, Japan) at 4 °C overnight. […] After the wells were washed with T-PBS 3 times, HRP-labeled goat anti-mouse IgG (Fc specific) antibody (1:1,000 dilution with T-PBS) was added into the wells (100 µl/well), and the plate was incubated at 37 °C for 1 h. Next, the wells were washed with T-PBS 3 times, the substrate solution (0.006% H2O2 in 200 mM citrate buffer, pH 4.0/H2O/0.6 mg/ml ABTS 10:9:1) was added into the wells (100 µl/well), and incubated at room temperature for 15 min.

The target of a further data set is T3, OAT1 (Homo sapiens, UniProt Q4U2R8).
T3 construct: expressed in transfected cells
T3 sequence (Q4U2R8 1-563): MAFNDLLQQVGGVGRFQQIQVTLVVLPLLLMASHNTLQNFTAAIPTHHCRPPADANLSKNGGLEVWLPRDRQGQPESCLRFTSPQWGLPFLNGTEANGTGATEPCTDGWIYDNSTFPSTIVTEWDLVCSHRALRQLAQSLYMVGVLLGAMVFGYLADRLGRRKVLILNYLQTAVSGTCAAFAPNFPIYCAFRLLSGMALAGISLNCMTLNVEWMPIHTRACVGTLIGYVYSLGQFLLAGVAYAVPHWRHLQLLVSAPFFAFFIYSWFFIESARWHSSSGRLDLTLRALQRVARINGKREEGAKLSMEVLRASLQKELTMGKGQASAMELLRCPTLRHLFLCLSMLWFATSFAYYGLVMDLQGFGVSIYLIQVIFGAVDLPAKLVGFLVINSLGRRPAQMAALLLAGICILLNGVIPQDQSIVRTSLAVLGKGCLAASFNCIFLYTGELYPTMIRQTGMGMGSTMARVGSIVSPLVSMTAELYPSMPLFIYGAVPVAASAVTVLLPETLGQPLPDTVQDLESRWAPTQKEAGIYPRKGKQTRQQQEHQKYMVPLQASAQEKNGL
The settings on record: cited from earlier work.

Data set [1] is described as follows: pharmacokinetic profile of 3MGA in EHBRs orally treated with GA (50 mg/kg). Type of data set: in vivo. The conditions noted are these: Eisai Hyperbilirubinemia rats (EHBR), rat, plasma; female EHBRs, GA 50 mg/kg oral; read-out: time of maximum plasma concentration. The protocol:
Female EHBRs (8 or 9-week-old) were orally treated with GA (50 mg/kg) suspended in 0.5% CMC, and kept in metabolic cages. Blood samples (approximately 0.3 ml) were collected from the tail 1, 2, 3, 6, 12, 24, and 48 h after the oral treatment. Urine samples were collected 6, 12, 24, and 48 h after the oral treatment. The concentrations of 3MGA in the samples were measured by both ELISA and LC-MS/MS described in our previous paper. Ten µl aliquots of plasma or urine from rats treated with GA, or standard solution of 3MGA in plasma or urine collected from normal rats were mixed with 20 µl of 1:1,000 diluted subtilisin, and incubated at 37 °C for 30 min. After adding 70 µl of EtOH containing 10 µg/ml of PHB used as internal standard, the solution was applied into the system. The mass spectrometer used an electrospray ionization source in the positive ion mode with multiple reaction monitoring (ESI(+)MS-MRM). The analytical column was an Inertsil ODS-4, 2 mm i.d. ×75 mm, 3 µm (GL Sciences Inc., Tokyo, Japan). […] The transitions (precursor to daughter) monitored and retention times were 647.4 to 453.5 m/z for 3MGA (4.4 min) and 195.2 to 139.0 m/z for PHB (4.8 min). […]

Structures are written as SMILES.

As for `CC1(C)[C@@H](O[C@@H]2O[C@H](C(=O)O)[C@@H](O)[C@H](O)[C@H]2O)CC[C@]2(C)[C@H]3C(=O)C=C4[C@@H]5C[C@@](C)(C(=O)O)CC[C@]5(C)CC[C@@]4(C)[C@]3(C)CC[C@@H]12` [Compound 3MGA, 3-monoglucuronyl glycyrrhetinic acid], the IC50 on rat 11β-HSD2 was 260 nM. The “substrate of OAT3” value on OAT3 is listed as “is a substrate”. Besides, the “cross-reactivity of anti-3MGA MAb” value with anti-3MGA MAb was found to be 100%. For the same molecule, the “substrate of OAT1” value at OAT1 is “is a substrate”. For the same molecule, in data set [1], the Tmax came to 6 h.
